Experiments:
[1] = test system: rgRSV224 virus; experiment: Antiviral activity: rgRSV224 (GFP) replication in HeLa cells; assay type: cell-based, respiratory syncytial virus (RSV); conditions: human respiratory syncytial virus, HeLa, 72 h, read-out: RSV HELA EC50 (μM), rgRSV224 virus (MOI=1), HeLa cells, GFP expression three days post-virus exposure
[2] = in vitro; conditions: human, TOX HELA CC50 (μM)
Experimental: Black 384-well clear-bottom microtiter plates (Corning, Amsterdam, The Netherlands) were filled via acoustic drop ejection using the echo liquid handler (Labcyte, Sunnyvale, Calif.). 200 nL of compound stock solutions (100% DMSO) were transferred to the assay plates. 9 serial 4-fold dilutions of compound were made, creating per quadrant the same compound concentration. The assay was initiated by adding 10 μL of culture medium to each well (RPMI medium without phenol red, 10% FBS-heat inactivated, 0.04% gentamycin (50 mg/mL). All addition steps are done by using a multidrop dispenser (Thermo Scientific, Erembodegem, Belgium). Next, rgRSV224 virus (MOI=1) diluted in culture medium was added to the plates. rgRSV224 virus is an engineered virus that includes an additional GFP gene (Hallak L K, Spillmann D, Collins P L, Peeples M E. Glycosaminoglycan sulfation requirements for respiratory syncytial virus infection; Journal of virology (2000), 74(22), 10508-13) and was in-licensed from the NIH (Bethesda, Md., USA). Finally, 20 μL of a HeLa cell suspension (3,000 cells/well) were plated. Medium, virus- and mock-infected controls were included in each test. The wells contain 0.05% DMSO per volume. Cells were incubated at 37° C. in a 5% CO2 atmosphere. Three days post-virus exposure, viral replication was quantified by measuring GFP expression in the cells by an in house developed MSM laser microscope (Tibotec, Beerse, Belgium). The EC50 was defined as the 50% inhibitory concentration for GFP expression. In parallel, compounds were incubated for three days in a set of white 384-well microtiter plates (Corning) and the cytotoxicity of compounds in HeLa cells was determined by measuring the ATP content of the cells using the ATPlite kit (Perkin Elmer, Zaventem, Belgium) according to the manufacturer's instructions. The CC50 was defined as the 50% concentration for cytotoxicity.

## C[C@@H]1c2ccccc2CCN1C(=O)c1cc(C2CC2)n2nc(-c3ccc(N4CC[C@H](C(=O)NC#N)C4)cc3F)cc2n1 [Compound 39, (3S)—N-Cyano-1-(4-{7-cyclopropyl-5-[(1R)-1-methyl-1,2,3,4-tetrahydroisoquinoline-2-carbonyl]pyrazolo[1,5-a]pyrimidin-2-yl}-3-fluorophenyl)pyrrolidine-3-carboxamide]
[1]
  EC50: 0.291 µM
[2]
  CC50 at 3 days: 53.1 µM

## C[C@@H]1c2ccccc2CCN1C(=O)c1cc(C2CC2)n2nc(-c3ccc(N4CC[C@@](C)(CC(N)=O)C4)cc3F)cc2n1 (single isomer, unassigned) [Compound 24, 2-[(3*S)-1-(4-{7-Cyclopropyl-5-[(1R)-1-methyl-1,2,3,4-tetrahydroisoquinoline-2-carbonyl]pyrazolo[1,5-a]pyrimidin-2-yl}-3-fluorophenyl)-3-methylpyrrolidin-3-yl]acetamide]
[1]
  EC50: 0.03 µM
[2]
  CC50 at 3 days: 26.4 µM

## C[C@@H]1c2ccccc2CCN1C(=O)c1cc(-c2ccncc2)n2nc(-c3ccc(N4CC[C@H](C(N)=O)C4)cc3F)cc2n1 [Compound 63, (3S)-1-(3-Fluoro-4-{5-[(1R)-1-methyl-1,2,3,4-tetrahydroisoquinoline-2-carbonyl]-7-(pyridin-4-yl)pyrazolo[1,5-a]pyrimidin-2-yl}phenyl)pyrrolidine-3-carboxamide]
[1]
  EC50: 0.011 µM
[2]
  CC50 at 3 days: 27.2 µM

## C[C@@H]1c2ccccc2CCN1C(=O)c1cc(-c2ccc(C(F)(F)F)cc2)n2nc(-c3ccc(N4CC[C@H](C(N)=O)C4)cc3F)cc2n1 [Compound 61, (3S)-1-(3-Fluoro-4-{5-[(1R)-1-methyl-1,2,3,4-tetrahydroisoquinoline-2-carbonyl]-7-[4-(trifluoromethyl)phenyl]pyrazolo[1,5-a]pyrimidin-2-yl}phenyl)pyrrolidine-3-carboxamide]
[1]
  EC50: 0.193 µM
[2]
  CC50 at 3 days: > 100 µM

## C[C@@H]1c2ccccc2CCN1C(=O)c1cc(C2CC2)n2nc(-c3ccc(N4CCC5(C4)CS(=O)(=O)C5)cc3F)cc2n1 [Compound 6]
[1]
  EC50: 0.098 µM
[2]
  CC50 at 3 days: > 100 µM

## C[C@@H]1c2ccccc2CCN1C(=O)c1cc(C2CC2)n2nc(-c3ccc(N4CCC(C#N)C4)cc3F)cc2n1 (stereo partly drawn) [Compound 1, 1-(4-{7-Cyclopropyl-5-[(1R)-1-methyl-1,2,3,4-tetrahydroisoquinoline-2-carbonyl]-pyrazolo[1,5-a]pyrimidin-2-yl}-3-fluorophenyl)pyrrolidine-3-carbonitrile]
[1]
  EC50: 0.085 µM
[2]
  CC50 at 3 days: > 100 µM

## C[C@@H]1c2ccccc2CCN1C(=O)c1cc(C2CC2)n2nc(-c3ccc(N4C[C@@H](O)[C@@H](F)C4)cc3F)cc2n1 (relative stereo) [Compound 107, (7-cyclopropyl-2-(2-fluoro-4-(cis-3-fluoro-4-hydroxypyrrolidin-1-yl)phenyl)pyrazolo[1,5-a]pyrimidin-5-yl)((R)-1-methyl-3,4-dihydroisoquinolin-2(1H)-yl)methanone]
[1]
  EC50: 0.017 µM
[2]
  CC50 at 3 days: 21.2 µM

## C[C@@H]1c2ccccc2CCN1C(=O)c1cc(C2CC2)n2nc(-c3ccc(N4C[C@H](C)[C@@H](O)C4)cc3F)cc2n1 (stereo in doubt) [Compound 99, (7-cyclopropyl-2-(2-fluoro-4-((trans)-3-hydroxy-4-methylpyrrolidin-1-yl)phenyl)pyrazolo[1,5-a]pyrimidin-5-yl)((R)-1-methyl-3,4-dihydroisoquinolin-2(1H)-yl)methanone]
[1]
  EC50: 0.092 µM
[2]
  CC50 at 3 days: > 100 µM

## C[C@@H]1c2ccccc2CCN1C(=O)c1cc(C2CC2)n2nc(-c3ccc(N4CCC(CC(N)=O)CC4)cc3F)cc2n1 [Compound 70, 2-[1-(4-{7-Cyclopropyl-5-[(1R)-1-methyl-1,2,3,4-tetrahydroisoquinoline-2-carbonyl]-pyrazolo[1,5-a]pyrimidin-2-yl}-3-fluorophenyl)piperidin-4-yl] acetamide]
[1]
  EC50: 0.104 µM
[2]
  CC50 at 3 days: 28.2 µM

## C[C@@H]1c2ccccc2CCN1C(=O)c1cc(C2CC2)n2nc(-c3ccc(N4CC[C@@H](O)C4)cc3F)cc2n1 [Compound 13, (3R)-1-(4-{7-Cyclopropyl-5-[(1R)-1-methyl-1,2,3,4-tetrahydroisoquinoline-2-carbonyl]pyrazolo[1,5-a]pyrimidin-2-yl}-3-fluorophenyl)pyrrolidin-3-ol]
[1]
  EC50: 0.058 µM
[2]
  CC50 at 3 days: 80.5 µM

## C[C@@H]1c2ccccc2CCN1C(=O)c1cc(-c2ccccc2)n2nc(-c3ccc(N4CC[C@H](C(N)=O)C4)cc3F)cc2n1 [Compound 56, (3S)-1-(3-Fluoro-4-{5-[(1R)-1-methyl-1,2,3,4-tetrahydroisoquinoline-2-carbonyl]-7-phenylpyrazolo[1,5-a]pyrimidin-2-yl}phenyl)pyrrolidine-3-carboxamide]
[1]
  EC50: 0.032 µM
[2]
  CC50 at 3 days: 58.9 µM

## C[C@@H]1c2ccccc2CCN1C(=O)c1cc(C2CC2)n2nc(-c3ccc(N4CCCC(C(N)=O)C4)cc3F)cc2n1 (stereo partly drawn) [Compound 69, 1-(4-{7-Cyclopropyl-5-[(1R)-1-methyl-1,2,3,4-tetrahydroisoquinoline-2-carbonyl]-pyrazolo[1,5-a]pyrimidin-2-yl}-3-fluorophenyl)piperidine-3-carboxamide]
[1]
  EC50: 0.059 µM
[2]
  CC50 at 3 days: 33.2 µM

## CNC(=O)O[C@@H]1CCN(c2ccc(-c3cc4nc(C(=O)N5CCc6ccccc6[C@H]5C)cc(C5CC5)n4n3)c(F)c2)C1 [Compound 15, (3R)-1-(4-{7-Cyclopropyl-5-[(1R)-1-methyl-1,2,3,4-tetrahydroisoquinoline-2-carbonyl]-pyrazolo[1,5-a]pyrimidin-2-yl}-3-fluorophenyl)pyrrolidin-3-yl N-methylcarbamate]
[1]
  EC50: 0.1 µM
[2]
  CC50 at 3 days: > 100 µM

## C[C@@H]1c2ccccc2CCN1C(=O)c1cc(C2CC2)n2nc(-c3ncc(N4CC[C@H](C(N)=O)C4)nc3F)cc2n1 [Compound 88, (3S)-1-(5-{7-Cyclopropyl-5-[(1R)-1-methyl-1,2,3,4-tetrahydroisoquinoline-2-carbonyl]-pyrazolo[1,5-a]pyrimidin-2-yl}-6-fluoropyrazin-2-yl)pyrrolidine-3-carboxamide]
[1]
  EC50: 0.017 µM
[2]
  CC50 at 3 days: 47.6 µM

## C[C@@H]1c2ccccc2CCN1C(=O)c1cc(C2CC2)n2nc(-c3ccc(N4CC[C@H](O)C4)cc3F)cc2n1 [Compound 14, (3S)-1-(4-{7-Cyclopropyl-5-[(1R)-1-methyl-1,2,3,4-tetrahydroisoquinoline-2-carbonyl]-pyrazolo[1,5-a]pyrimidin-2-yl}-3-fluorophenyl)pyrrolidin-3-ol]
[1]
  EC50: 0.039 µM
[2]
  CC50 at 3 days: 81.2 µM

## C[C@@H]1c2ccccc2CCN1C(=O)c1cc(C2CC2)n2nc(-c3ccc(N4CC[C@H](C(C)(C)C(N)=O)C4)cc3F)cc2n1 (single isomer, unassigned) [Compound 27, 2-[(3*R)-1-(4-{7-Cyclopropyl-5-[(1R)-1-methyl-1,2,3,4-tetrahydroisoquinoline-2-carbonyl]pyrazolo[1,5-a]pyrimidin-2-yl}-3-fluorophenyl)pyrrolidin-3-yl]-2-methylpropanamide]
[1]
  EC50: 0.089 µM
[2]
  CC50 at 3 days: 34.4 µM

## C[C@@H]1c2ccccc2CCN1C(=O)c1cc(-c2ccc(Cl)cc2)n2nc(-c3ccc(N4CC[C@H](C(N)=O)C4)cc3F)cc2n1 [Compound 59, (3S)-1-{4-[7-(4-Chlorophenyl)-5-[(1R)-1-methyl-1,2,3,4-tetrahydroisoquinoline-2-carbonyl]pyrazolo[1,5-a]pyrimidin-2-yl]-3-fluorophenyl}pyrrolidine-3-carboxamide]
[1]
  EC50: 0.047 µM

From patent publication US11339165B2, “Pyrazolopyrimidines having activity against the respiratory syncytial virus (RSV)” (priority 2017, dated 2022)
